Experiments:
Test in all cases: Bliss excess, mean over the matrix (fraction); higher = more synergy
[1] = test system: MDA-MB-361 (Breast Carcinoma)
Procedure, shortened: (§1)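 After 24 hours at 37°C and 5% CO2 in 1536-well plates, cells in DMEM/F12 or RPMI plus 10% FBS received two-drug dose matrices for 72 hours. Viability came from CellTiter-Glo 2.0 luminescence and was scaled as inhibition, anchored at 0 by vehicle wells and at 1 by blank wells. Combination Emax is taken as the second-highest inhibition in the matrix, and Bliss excess as the observed combination effect less EA + EB − EA·EB, with EA and EB the single-agent effects.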

[2] = test system: SK-ES-1 (Ewing's Sarcoma)
Procedure, shortened: as §1

[3] = test system: TE-15 (Esophageal Squamous Cell Carcinoma)
Procedure, shortened: as §1

[4] = test system: CAL-148 (Breast Carcinoma)
Procedure, shortened: as §1

[5] = test system: NCI-H2085 (Non-Small Cell Lung Carcinoma)
Procedure, shortened: as §1

[6] = test system: LS-180 (Colorectal Carcinoma)
Procedure, shortened: as §1

[7] = test system: UM-UC-3 (Bladder Carcinoma)
Procedure, shortened: as §1

ES4 (Ewing's Sarcoma) = test system: ES4 (Ewing's Sarcoma)
Procedure, shortened: as §1

[8] = test system: NCI-H82 (Small Cell Lung Carcinoma)
Procedure, shortened: as §1

42-MG-BA (Glioblastoma) = test system: 42-MG-BA (Glioblastoma)
Procedure, shortened: as §1

[9] = test system: HCC1806 (Breast Carcinoma)
Procedure, shortened: as §1

[10] = test system: HuP-T4 (Pancreatic Carcinoma)
Procedure, shortened: as §1

SMILES	Bliss excess [1]	Bliss excess [2]	Bliss excess [3]	Bliss excess [4]	Bliss excess [5]	Bliss excess [6]	Bliss excess [7]	Bliss excess (ES4 (Ewing's Sarcoma))	Bliss excess [8]	Bliss excess (42-MG-BA (Glioblastoma))	Bliss excess [9]	Bliss excess [10]
CN(C)CCCOc1ccc(-c2ccc3ncc4c(c3c2)n(C2CCOCC2)c(=O)n4C)cn1 [AZD0156] + C=CCn1c(=O)c2cnc(Nc3ccc(N4CCN(C)CC4)cc3)nc2n1-c1cccc(C(C)(C)O)n1 [AZD1775] (first compound max 1 µM, partner max 1 µM)	-0.006	0.0045	-0.0705	-0.0318	-0.0406	-0.0459	-0.007	0.0122	-0.0283	0.0275	-0.0219	-0.022
CN(C)CCCOc1ccc(-c2ccc3ncc4c(c3c2)n(C2CCOCC2)c(=O)n4C)cn1 [AZD0156] + CCN(CCO)CCCOc1ccc2c(Nc3cc(CC(=O)Nc4cccc(F)c4)[nH]n3)ncnc2c1 [AZD2811] (first compound max 1 µM, 7x7, partner max 1 µM)	-0.0078	-0.0011	-0.0382	-0.0262	-0.0194	-0.0264	-0.0079	0.03	0.0315	0.0813	-0.003	-0.005
CN(C)CCCOc1ccc(-c2ccc3ncc4c(c3c2)n(C2CCOCC2)c(=O)n4C)cn1 [AZD0156] + C[C@@H]1COCCN1C2=NC(=NC(=C2)C3(CC3)[S@](=N)(=O)C)C4=C5C=CNC5=NC=C4 [AZD6738] (first compound max 1 µM, 7x7, partner max 10 µM)	0.0366	0.0267	-0.0283	-0.0441	0.0274	-0.0347	0.0101	0.0618	0.0286	0.0224	0.0241	0.0118
C=CCn1c(=O)c2cnc(Nc3ccc(N4CCN(C)CC4)cc3)nc2n1-c1cccc(C(C)(C)O)n1 [AZD1775] + C[C@@H]1COCCN1C2=NC(=NC(=C2)C3(CC3)[S@](=N)(=O)C)C4=C5C=CNC5=NC=C4 [AZD6738] (first compound max 1 µM, partner max 10 µM)	-0.0113	0.0071	-0.0076	-0.034	0.0147	-0.0098	0.0606	0.0417	–	0.0384	0.0166	0.0849
C=CCn1c(=O)c2cnc(Nc3ccc(N4CCN(C)CC4)cc3)nc2n1-c1cccc(C(C)(C)O)n1 [AZD1775] + O=C(c1cc(Cc2n[nH]c(=O)c3ccccc23)ccc1F)N1CCN(C(=O)C2CC2)CC1 [Olaparib] (first compound max 1 µM, partner max 10 µM)	-0.0357	0.0511	-0.106	0.0068	-0.0353	-0.0188	0.0251	0.0199	-0.0098	0.0093	-0.0294	0.0075
CCN(CCO)CCCOc1ccc2c(Nc3cc(CC(=O)Nc4cccc(F)c4)[nH]n3)ncnc2c1 [AZD2811] + C=CCn1c(=O)c2cnc(Nc3ccc(N4CCN(C)CC4)cc3)nc2n1-c1cccc(C(C)(C)O)n1 [AZD1775] (first compound max 1 µM, partner max 1 µM)	-0.0044	0.028	-0.0576	-0.0165	0.0061	0.0269	-0.0171	-0.0024	0.0241	0.081	0.0012	0.0274
CCN(CCO)CCCOc1ccc2c(Nc3cc(CC(=O)Nc4cccc(F)c4)[nH]n3)ncnc2c1 [AZD2811] + C[C@@H]1COCCN1C2=NC(=NC(=C2)C3(CC3)[S@](=N)(=O)C)C4=C5C=CNC5=NC=C4 [AZD6738] (first compound max 1 µM, 7x7, partner max 10 µM)	-0.0816	0.0382	-0.0063	-0.0252	-0.0913	-0.0723	0.0276	-0.0042	-0.0406	0.037	-0.014	0.0305
CCN(CCO)CCCOc1ccc2c(Nc3cc(CC(=O)Nc4cccc(F)c4)[nH]n3)ncnc2c1 [AZD2811] + O=C(c1cc(Cc2n[nH]c(=O)c3ccccc23)ccc1F)N1CCN(C(=O)C2CC2)CC1 [Olaparib] (first compound max 1 µM, 7x7, partner max 10 µM)	-0.0133	-0.0075	-0.0125	0.0319	-0.0109	0.0636	0.0332	-0.0138	0.022	0.009	0.0298	-0.0055

— the supplement of paper PMC11061612
